Assay results reported in patent publication US20250326748A1, “COMPOUNDS AND METHODS FOR MODULATING SPLICING” (REMIX THERAPEUTICS INC., priority 2022, published 2025).
Like-named read-outs stand apart in the source and are kept apart here.

Experiments:
MYB mRNA = test: Splicing RT-qPCR assay, MYB canonical (CJ) and alternative (AJ) junction mRNA; type: cell-based, human; details: Homo sapiens; for IC50: canonical junction mRNA; for AC50: alternative junction mRNA, read-out: MYB AJ (AC50, increase in AJ mRNA)
Outline: (§1)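 Splicing switches are scored by TaqMan qPCR on cell lysate, comparing abundance of the normal exon junction with the new junction formed when the alternative exon is included. A673 results are referenced to PPIA and K562 results to GAPDH or GUSB. Compound exposure lasts 24 h.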

SMN2 mRNA = test: Splicing RT-qPCR panel, SMN2 canonical junction (CJ) mRNA; type: cell-based, human; details: Homo sapiens, read-out: SMN2 CJ (decrease in CJ mRNA levels, IC50)
Procedure: Compounds described herein were used to modulate RNA transcript abundance in cells. The expression of a target mRNA was measured by detecting the formation of an exon-exon junction in the canonical transcript (CJ). A compound mediated exon-inclusion event was detected by observing an increase in formation of a new junction with an alternative exon (AJ). Real-time qPCR assays were used to detect these splicing switches and interrogate the potency of various compounds towards different target genes. A high-throughput real time quantitative PCR (RT-qPCR) assay was developed to measure these two isoforms of the mRNA (CJ and AJ) for exemplary genes, such as HTT, SMN2, and MYB, together with a control housekeeping gene, GAPDH or GUSB or PPIA, used for normalization. Briefly, the A673 or K562 cell line was treated with various compounds described herein (e.g., compounds of Formula (D). After treatment, the levels of the HTT, MYB, or SMN2 mRNA targets were determined from each sample of cell lysate by cDNA synthesis followed by qPCR.
The A673 cell line was cultured in DMEM with 10% FBS. Cells were diluted with full growth media and plated in a 96-well plate (15,000 cells in 100 ul media per well). The plate was incubated at 37° C. with 5% CO2 for 24 hours to allow cells to adhere. An 11-point 3-fold serial dilution of the compounds was made in DMSO then diluted in media in an intermediate plate. Compounds were transferred from the intermediate plate to the cell plate with the top dose at a final concentration of 10 uM in the well. Final DMSO concentration was kept at or below 0.25%. The cell plate was returned to the incubator at 37° C. with 5% CO2 for an additional 24 hours.
The K562 cell line was cultured in IMDM with 10% FBS. For K562, cells were diluted with full growth media and plated in either a 96-well plate (50,000 cells in 50 uL media per well) or a 384-well plate (8,000-40,000 cells in 45 uL media per well). An 11-point 3-fold serial dilution of the compounds were made in DMSO then diluted in media in an intermediate plate. Compound was transferred from the intermediate plate to the cell plate with the top dose at a final concentration of 10 uM in the well. Final DMSO concentration was kept at or below 0.25%. Final volume was 100 uL for 96-well plate and 50 uL for 384-well plate. The cell plate was then placed in an incubator at 37° C. with 5% CO2 for 24 hours.
The cells were then gently washed with 50 uL-100 uL cold PBS before proceeding to addition of lysis buffer. 30 uL-50 μL of room temperature lysis buffer with DNAse I (and optionally RNAsin) was added to each well. Cells were shaken/mixed thoroughly at room temperature for 5-10 minutes for lysis to take place and then 3 uL-5 μL of room temperature stop solution was added and wells were shaken/mixed again. After 2-5 minutes, the cell lysate plate was transferred to ice for RT-qPCR reaction setup. The lysates could also be frozen at −80° C. for later use.
In some cases, a direct lysis buffer was used. An appropriate volume of 3× lysis buffer (10 mM Tris, 150 mM NaCl, 1.5%-2.5% Igepal and 0.1-1 U/uL RNAsin, pH 7.4) was directly added to either K562 or A673 cells in media and mixed by pipetting 3 times. The plates were then incubated at room temperature with shaking/rocking for 20-50 minutes to allow for lysis to take place. After this time, the cell lysate plate was transferred to ice to set up for the RT-qPCR reactions. The lysates could also be frozen at −80° C. for later use.
To set up 10 uL RT-qPCR reactions, cell lysates were transferred to 384-well qPCR plates containing the master mix according to the table below. The plates were sealed, gently vortexed, and spun down before the run. The volumes were adjusted accordingly in some instances where the reaction was carried in 20 μL. The table below summarizes the components of the RT-qPCR reactions:
The RT-qPCR reaction was performed using a QuantStudio (ThermoFisher) under the following fast cycling conditions. […]

Target C mRNA = test: Splicing RT-qPCR panel, Target C canonical junction (CJ) mRNA; type: cell-based, human; details: Homo sapiens, read-out: Target C CJ (decrease in CJ mRNA levels, IC50)
Outline: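 A673 cells (DMEM, 10% FBS) or K562 cells (IMDM, 10% FBS) treated 24 h at 37 °C with an 11-point 3-fold dilution, top 10 uM, DMSO ≤0.25%. Canonical-junction mRNA quantified in lysates by RT-qPCR, normalised to GAPDH, GUSB or PPIA and to DMSO (2^−ΔΔCt), then converted to % response.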

K562 cells = test: Cell viability, Cell Titer Glo 2.0 assay, K562; details: 72 hours
HTT mRNA = test: Splicing RT-qPCR assay, HTT canonical (CJ) and alternative (AJ) junction mRNA; type: cell-based, human; details: Homo sapiens; for IC50: canonical junction mRNA; for AC50: alternative junction mRNA, read-out: HTT AJ (AC50, increase in AJ mRNA)
Outline: as §1

[1] = qPCR panel, read-out: MYB CJ (decrease in CJ mRNA levels, IC50)
[2] = RT-qPCR, A673 or K562 cells, 24 hours treatment
[3] = RT-qPCR, A673 or K562 cells, 24 hours treatment, read-out: MYB CJ (IC50, decrease in CJ mRNA)
[4] = 24 h, RT-qPCR, A673 or K562 cells, 24 hours treatment, read-out: HTT CJ (IC50, decrease in CJ mRNA)
[5] = qPCR panel, read-out: HTT CJ (decrease in CJ mRNA levels, IC50)

SMILES | IC50 (MYB mRNA; [1]) [nM] | IC50 (MYB mRNA; [3]) [nM] | IC50 (SMN2 mRNA) [nM] | IC50 (Target C mRNA) [nM] | IC50 (HTT mRNA; [4]) [nM] | IC50 (HTT mRNA; [5]) [nM] | AC50 (MYB mRNA; [2]) [nM] | Effect on Cell Viability, K562 (K562 cells) | AC50 (HTT mRNA; [2]) [nM]
C[C@H]1CN(c2cnc3nc(-c4cc(F)c5nn(C)cc5c4)ccc3c2)CCN1 [Compound 373, 2-(7-fluoro-2-methylindazol-5-yl)-6-[(3S)-3-methylpiperazin-1-yl]-1,8-naphthyridine] | 100 to 1000 | 100 to 1000 | < 100 | 1000 to 10000 | 1000 to 10000 | 1000 to 10000 | 100 to 1000 | B (100-1000 nM) | 1000 to 10000
C[C@H]1CN(c2cnc3nc(-c4cc5cn(C)nc5cc4O)cc(Cl)c3c2)CC2(CC2)N1 [Compound 379] | 100 to 1000 | 100 to 1000 | < 100 | > 10000 | 1000 to 10000 | 1000 to 10000 | 100 to 1000 | B (100-1000 nM) | 1000 to 10000
Cc1c(O)c(-c2ccc3c(Cl)c(N4C[C@@H](C)N[C@@H](C)C4)cnc3n2)cc2cn(C)nc12 [Compound 390] | 100 to 1000 | < 100 | < 100 | 1000 to 10000 | 1000 to 10000 | 1000 to 10000 | < 100 | A (<100 nM) | > 10000
Cc1c(O)c(-c2ccc3c(Cl)c(N4C[C@H](C)N[C@@H](C)C4)cnc3n2)cc2cn(C)nc12 [Compound 394] | < 100 | < 100 | < 100 | 1000 to 10000 | 100 to 1000 | 100 to 1000 | < 100 | B (100-1000 nM) | 100 to 1000
C[C@H]1CN(c2cnc3nc(-c4cc(F)c5nn(C)cc5c4)cc(Cl)c3c2)CC2(CC2)N1 [Compound 396] | 100 to 1000 | 100 to 1000 | < 100 | 1000 to 10000 | 1000 to 10000 | 1000 to 10000 | 100 to 1000 | C (1000-9999 nM) | 1000 to 10000

Continued, in another order:

IC50 (MYB mRNA; [1]) [nM] | IC50 (MYB mRNA; [3]) [nM] | IC50 (SMN2 mRNA) [nM] | IC50 (Target C mRNA) [nM] | IC50 (HTT mRNA; [4]) [nM] | IC50 (HTT mRNA; [5]) [nM] | SMILES | AC50 (MYB mRNA; [2]) [nM] | Effect on Cell Viability, K562 (K562 cells) | AC50 (HTT mRNA; [2]) [nM]
100 to 1000 | 100 to 1000 | < 100 | > 10000 | 1000 to 10000 | 1000 to 10000 | C[C@@H]1CN(c2cnc3nc(-c4cc(F)c5nn(C)cc5c4)cc(Cl)c3c2)CC2(CC2)N1 [Compound 397] | 1000 to 10000 | C (1000-9999 nM) | > 10000
< 100 | < 100 | < 100 | > 10000 | 100 to 1000 | 100 to 1000 | Cc1c(O)c(-c2cc(Cl)c3cc(N4C[C@H](C)NC5(CC5)C4)cnc3n2)cc2cn(C)nc12 [Compound 398] | < 100 | B (100-1000 nM) | 100 to 1000
< 100 | < 100 | < 100 | > 10000 | 1000 to 10000 | 1000 to 10000 | Cc1c(O)c(-c2cc(Cl)c3cc(N4C[C@@H](C)NC5(CC5)C4)cnc3n2)cc2cn(C)nc12 [Compound 399] | < 100 | B (100-1000 nM) | > 10000
100 to 1000 | 100 to 1000 | < 100 | 1000 to 10000 | 1000 to 10000 | 1000 to 10000 | Cc1cn2nc(-c3cc(Cl)c4cc(N5C[C@H](C)NC6(CC6)C5)cnc4n3)cc(C)c2n1 [Compound 400] | 100 to 1000 | C (1000-9999 nM) | 1000 to 10000
100 to 1000 | 100 to 1000 | < 100 | 1000 to 10000 | 1000 to 10000 | 1000 to 10000 | Cc1cn2cc(-c3cc(Cl)c4cc(N5C[C@H](C)NC6(CC6)C5)cnc4n3)cc(F)c2n1 [Compound 401] | 100 to 1000 | C (1000-9999 nM) | 1000 to 10000
100 to 1000 | 100 to 1000 | < 100 | > 10000 | > 10000 | > 10000 | Cc1cn2cc(-c3cc(Cl)c4cc(N5C[C@@H](C)NC6(CC6)C5)cnc4n3)cc(F)c2n1 [Compound 402] | 100 to 1000 | C (1000-9999 nM) | > 10000
1000 to 10000 | 1000 to 10000 | 100 to 1000 | > 10000 | > 10000 | > 10000 | COc1nc(-c2cc(Cl)c3cc(N4C[C@H](C)N[C@@H](C)C4)cnc3n2)cn2cc(C)nc12 [Compound 403, 4-chloro-6-[(3S,5S)-3,5-dimethylpiperazin-1-yl]-2-{8-methoxy-2-methylimidazo[1,2-a]pyrazin-6-yl}-1,8-naphthyridine] | 100 to 1000 | C (1000-9999 nM) | > 10000
100 to 1000 | 100 to 1000 | < 100 | 1000 to 10000 | 1000 to 10000 | 1000 to 10000 | C[C@H]1CN(c2cnc3nc(-c4cc5cn(C)nc5cc4O)cc(Cl)c3c2)C[C@H](C)N1C [Compound 404, 5-{4-chloro-6-[(3S,5S)-3,4,5-trimethylpiperazin-1-yl]-1,8-naphthyridin-2-yl}-2-methylindazol-6-ol] | 100 to 1000 | B (100-1000 nM) | 1000 to 10000
